From paper PMC8252567 (Angewandte Chemie (International Ed. in English), 2021)
Non-standard residues stand in square brackets, D forms with d. Residues, ends and D or L forms follow the SMILES beside them. *: point of attachment. FITC = O=C1OC2(c3ccc(O)cc3Oc3cc(O)ccc32)c2ccc(NC(=S)*)cc21; Nle = CCCC[C@H](N)C(=O)O; AEEA = NCCOCCOCC(=O)O; βAla = NCCC(=O)O

Molecular target: T1, full length β-catenin (aa 1-781) (Homo sapiens, UniProt P35222)
T1 sequence (P35222 1-781): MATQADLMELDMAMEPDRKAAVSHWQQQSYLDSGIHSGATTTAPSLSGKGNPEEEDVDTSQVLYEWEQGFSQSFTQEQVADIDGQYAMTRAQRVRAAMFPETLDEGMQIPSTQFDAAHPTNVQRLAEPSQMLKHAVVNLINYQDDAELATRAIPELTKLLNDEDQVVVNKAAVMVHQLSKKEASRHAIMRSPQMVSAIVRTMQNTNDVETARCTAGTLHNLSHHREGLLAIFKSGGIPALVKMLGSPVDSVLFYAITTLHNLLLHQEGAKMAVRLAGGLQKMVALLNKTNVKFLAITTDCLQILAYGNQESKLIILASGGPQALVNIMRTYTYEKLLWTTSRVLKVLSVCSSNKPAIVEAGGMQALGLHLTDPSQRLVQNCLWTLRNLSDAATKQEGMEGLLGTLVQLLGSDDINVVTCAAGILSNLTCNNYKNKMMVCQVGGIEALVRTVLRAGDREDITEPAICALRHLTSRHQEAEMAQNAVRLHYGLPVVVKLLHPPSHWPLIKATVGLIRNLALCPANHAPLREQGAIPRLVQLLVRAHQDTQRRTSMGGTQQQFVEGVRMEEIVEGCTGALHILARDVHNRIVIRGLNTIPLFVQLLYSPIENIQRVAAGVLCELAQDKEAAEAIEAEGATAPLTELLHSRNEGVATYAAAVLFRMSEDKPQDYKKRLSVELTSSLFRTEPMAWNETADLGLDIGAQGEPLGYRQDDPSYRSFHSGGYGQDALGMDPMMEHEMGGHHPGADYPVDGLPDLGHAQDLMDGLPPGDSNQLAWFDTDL
Experiment: Direct fluorescence polarization
Type: binding

Kd	Compound
> 5 µM	CCCC[C@H](NC(=O)[C@H](CC(C)C)NC(=O)[C@@H](NC(=O)[C@@H]1CCCN1C(=O)[C@H](C)NC(=O)[C@@H](NC(=O)[C@H](CC(=O)O)NC(=O)[C@H](CC(N)=O)NC(=O)[C@H](CCCNC(=N)N)NC(=O)[C@@H](NC(=O)[C@@H](NC(=O)CCNC(=O)CCNC(=O)[C@H](Cc1ccccc1)NC(=O)[C@@H](NC(=O)[C@H](CC(C)C)NC(=O)[C@H](CC(C)C)NC(=O)[C@H](CO)NC(=O)[C@H](CC(=O)O)NC(=O)COCCOCCNC(=S)Nc1ccc2c(c1)C(=O)OC21c2ccc(O)cc2Oc2cc(O)ccc21)C(C)C)C(C)C)[C@@H](C)O)C(C)C)[C@@H](C)O)C(=O)N[C@@H](CO)C(=O)N[C@H](C(=O)N1CCC[C@H]1C(=O)N[C@@H](CCC(N)=O)C(N)=O)C(C)C [peptide 9] ({FITC-AEEA}-DSLLVF[βAla][βAla]VTRNDVAPTL[Nle]SVPQ-NH2)
> 5 µM	CC(C)C[C@H](NC(=O)[C@H](CO)NC(=O)[C@H](CC(=O)O)NC(=O)COCCOCCNC(=S)Nc1ccc2c(c1)C(=O)OC21c2ccc(O)cc2Oc2cc(O)ccc21)C(=O)N[C@@H](CC(C)C)C(=O)N[C@H](C(=O)N[C@@H](Cc1ccccc1)C(=O)NCCC(=O)NCCC(=O)N[C@H](C(=O)N[C@H](C(=O)N[C@@H](CCCNC(=N)N)C(=O)N[C@@H](CC(N)=O)C(=O)N[C@@H](CC(=O)O)C(=O)N[C@H](C(N)=O)C(C)C)[C@@H](C)O)C(C)C)C(C)C [peptide 11] ({FITC-AEEA}-DSLLVF[βAla][βAla]VTRNDV-NH2)
